Test results: the supplement of paper PMC13207355
Where a name gives a salt, the structure may show the parent alone.

How the values were obtained:
Conditions in all cases: exposure time: 72 h
FT3469 [1] = normal neural stem cell line; assay: phenotypic distance (Euclidean, principal components) from DMSO controls (arbitrary units); higher = stronger morphological change
E34 [2] = patient-derived glioblastoma stem cells of proneural subtype; assay: as above
E21 [3] = patient-derived glioblastoma stem cells of mesenchymal subtype; assay: as above
E28 [4] = patient-derived glioblastoma stem cells of classical subtype; assay: as above
E13 [5] = patient-derived glioblastoma stem cells of classical subtype; assay: as above
E57 [6] = patient-derived glioblastoma stem cells of mesenchymal subtype; assay: as above
E31 [7] = patient-derived glioblastoma stem cells of proneural subtype; assay: as above
FT3469 [8] = assay: surviving fraction (nuclei count normalised to DMSO); higher = more cells surviving (less toxic)
E34 [9] = assay: as above
E21 [10] = assay: as above
E28 [11] = assay: as above
E13 [12] = assay: as above
E57 [13] = assay: as above
E31 [14] = assay: as above
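For phenotypic distance (Euclidean, principal components) from DMSO controls in this document: cell Painting imaging in 384-well plates, CellProfiler features reduced to at least 20 principal components, Euclidean distance versus same-plate DMSO vehicle wells (0.1% v/v), median over six images per well.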
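For surviving fraction (nuclei count normalised to DMSO) in this document: nuclei counted by high-content imaging of Hoechst-stained cells in laminin-coated 384-well plates, relative to 0.1% DMSO vehicle wells, with staurosporine as cell-death control.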

COc1cccc2c1C(=O)c1c(O)c3c(c(O)c1C2=O)C[C@@](O)(C(C)=O)C[C@@H]3O[C@H]1C[C@H](N)[C@H](O)[C@H](C)O1 [Daunorubicin hydrochloride]
Conditions | phenotypic distance | surviving fraction
E13 [5], 4.1 nM | 3.33 | –
E13 [5], 12.3 nM | 4.36 | –
E13 [5], 37 nM | 6.02 | –
E13 [5], 111.1 nM | 5.64 | –
E13 [5], 333.3 nM | 5.87 | –
E13 [5], 1000 nM | 7.81 | –
E13 [5], 3000 nM | 5.88 | –
E13 [12], 4.1 nM | – | 0.54
E13 [12], 12.3 nM | – | 0.512
E13 [12], 37 nM | – | 0.342
E13 [12], 111.1 nM | – | 0.381
E13 [12], 333.3 nM | – | 0.216
E13 [12], 1000 nM | – | 0.0373
E13 [12], 3000 nM | – | 0.0142
E21 [3], 4.1 nM | 1.95 | –
E21 [3], 12.3 nM | 4.33 | –
E21 [3], 37 nM | 6.78 | –
E21 [3], 111.1 nM | 5.96 | –
E21 [3], 333.3 nM | 5.7 | –
E21 [3], 1000 nM | 6.37 | –
E21 [3], 3000 nM | 6.06 | –
E21 [10], 4.1 nM | – | 0.844
E21 [10], 12.3 nM | – | 0.597
E21 [10], 37 nM | – | 0.451
E21 [10], 111.1 nM | – | 0.343
E21 [10], 333.3 nM | – | 0.151
E21 [10], 1000 nM | – | 0.0632
E21 [10], 3000 nM | – | 0.055
E28 [4], 4.1 nM | 1.76 | –
E28 [4], 12.3 nM | 2.56 | –
E28 [4], 37 nM | 2.56 | –
E28 [4], 111.1 nM | 3.09 | –
E28 [4], 333.3 nM | 3.78 | –
E28 [4], 1000 nM | 3.13 | –
E28 [4], 3000 nM | 5.54 | –
E28 [11], 4.1 nM | – | 0.408
E28 [11], 12.3 nM | – | 0.419
E28 [11], 37 nM | – | 0.339
E28 [11], 111.1 nM | – | 0.251
E28 [11], 333.3 nM | – | 0.185
E28 [11], 1000 nM | – | 0.187
E28 [11], 3000 nM | – | 0.11
E31 [7], 4.1 nM | 2.77 | –
E31 [7], 12.3 nM | 2.46 | –
E31 [7], 37 nM | 2.46 | –
E31 [7], 111.1 nM | 4.45 | –
E31 [7], 333.3 nM | 4.56 | –
E31 [7], 1000 nM | 7.33 | –
E31 [7], 3000 nM | 5.46 | –
E31 [14], 4.1 nM | – | 0.51
E31 [14], 12.3 nM | – | 0.293
E31 [14], 37 nM | – | 0.266
E31 [14], 111.1 nM | – | 0.134
E31 [14], 333.3 nM | – | 0.0818
E31 [14], 1000 nM | – | 0.0315
E31 [14], 3000 nM | – | 0.0944
E34 [2], 4.1 nM | 1.67 | –
E34 [2], 12.3 nM | 4.29 | –
E34 [2], 37 nM | 4.68 | –
E34 [2], 111.1 nM | 3.18 | –
E34 [2], 333.3 nM | 2.84 | –
E34 [2], 1000 nM | 4.23 | –
E34 [2], 3000 nM | 3.57 | –
E34 [9], 4.1 nM | – | 0.644
E34 [9], 12.3 nM | – | 0.611
E34 [9], 37 nM | – | 0.591
E34 [9], 111.1 nM | – | 0.445
E34 [9], 333.3 nM | – | 0.471
E34 [9], 1000 nM | – | 0.259
E34 [9], 3000 nM | – | 0.0925
E57 [6], 4.1 nM | 3.27 | –
E57 [6], 12.3 nM | 6.2 | –
E57 [6], 37 nM | 9.2 | –
E57 [6], 111.1 nM | 7.86 | –
E57 [6], 333.3 nM | 6.42 | –
E57 [6], 1000 nM | 6.83 | –
E57 [6], 3000 nM | 7.19 | –
E57 [13], 4.1 nM | – | 0.583
E57 [13], 12.3 nM | – | 0.325
E57 [13], 37 nM | – | 0.194
E57 [13], 111.1 nM | – | 0.178
E57 [13], 333.3 nM | – | 0.149
E57 [13], 1000 nM | – | 0.0932
E57 [13], 3000 nM | – | 0.0598
FT3469 [1], 4.1 nM | 1.72 | –
FT3469 [1], 12.3 nM | 1.77 | –
FT3469 [1], 37 nM | 2.11 | –
FT3469 [1], 111.1 nM | 2.17 | –
FT3469 [1], 333.3 nM | 2.57 | –
FT3469 [1], 1000 nM | 4.08 | –
FT3469 [1], 3000 nM | 7.48 | –
FT3469 [8], 4.1 nM | – | 0.644
FT3469 [8], 12.3 nM | – | 0.625
FT3469 [8], 37 nM | – | 0.487
FT3469 [8], 111.1 nM | – | 0.606
FT3469 [8], 333.3 nM | – | 0.593
FT3469 [8], 1000 nM | – | 0.0798
FT3469 [8], 3000 nM | – | 0.0266

C[C@]12CC[C@H](O)C[C@H]1CC[C@@H]1[C@@H]2C[C@@H](O)[C@]2(C)[C@@H](C3=CC(=O)OC3)CC[C@]12O [Digoxigenin]
Conditions | phenotypic distance | surviving fraction
E13 [5], 4.1 nM | 0.193 | –
E13 [5], 12.3 nM | 0.571 | –
E13 [5], 37 nM | 0.503 | –
E13 [5], 111.1 nM | 0.911 | –
E13 [5], 333.3 nM | 2.63 | –
E13 [5], 1000 nM | 3.73 | –
E13 [5], 3000 nM | 4.86 | –
E13 [12], 4.1 nM | – | 0.965
E13 [12], 12.3 nM | – | 1.05
E13 [12], 37 nM | – | 0.962
E13 [12], 111.1 nM | – | 0.89
E13 [12], 333.3 nM | – | 0.662
E13 [12], 1000 nM | – | 0.426
E13 [12], 3000 nM | – | 0.354
E21 [3], 4.1 nM | 0.486 | –
E21 [3], 12.3 nM | 0.815 | –
E21 [3], 37 nM | 0.94 | –
E21 [3], 111.1 nM | 1.64 | –
E21 [3], 333.3 nM | 3.18 | –
E21 [3], 1000 nM | 3.95 | –
E21 [3], 3000 nM | 6.35 | –
E21 [10], 4.1 nM | – | 0.996
E21 [10], 12.3 nM | – | 0.951
E21 [10], 37 nM | – | 0.891
E21 [10], 111.1 nM | – | 0.887
E21 [10], 333.3 nM | – | 0.582
E21 [10], 1000 nM | – | 0.473
E21 [10], 3000 nM | – | 0.331
E28 [4], 4.1 nM | 0.383 | –
E28 [4], 12.3 nM | 0.587 | –
E28 [4], 37 nM | 0.46 | –
E28 [4], 111.1 nM | 0.569 | –
E28 [4], 333.3 nM | 0.59 | –
E28 [4], 1000 nM | 1.04 | –
E28 [4], 3000 nM | 2.24 | –
E28 [11], 4.1 nM | – | 1.01
E28 [11], 12.3 nM | – | 1.11
E28 [11], 37 nM | – | 0.883
E28 [11], 111.1 nM | – | 0.991
E28 [11], 333.3 nM | – | 1.02
E28 [11], 1000 nM | – | 0.998
E28 [11], 3000 nM | – | 0.537
E31 [7], 4.1 nM | 0.558 | –
E31 [7], 12.3 nM | 0.764 | –
E31 [7], 37 nM | 0.809 | –
E31 [7], 111.1 nM | 0.828 | –
E31 [7], 333.3 nM | 1.83 | –
E31 [7], 1000 nM | 3.63 | –
E31 [7], 3000 nM | 4.82 | –
E31 [14], 4.1 nM | – | 1.01
E31 [14], 12.3 nM | – | 0.832
E31 [14], 37 nM | – | 0.916
E31 [14], 111.1 nM | – | 0.996
E31 [14], 333.3 nM | – | 0.946
E31 [14], 1000 nM | – | 0.603
E31 [14], 3000 nM | – | 0.348
E34 [2], 4.1 nM | 0.591 | –
E34 [2], 12.3 nM | 0.506 | –
E34 [2], 37 nM | 0.531 | –
E34 [2], 111.1 nM | 0.98 | –
E34 [2], 333.3 nM | 1.57 | –
E34 [2], 1000 nM | 3.22 | –
E34 [2], 3000 nM | 4.52 | –
E34 [9], 4.1 nM | – | 0.86
E34 [9], 12.3 nM | – | 0.942
E34 [9], 37 nM | – | 0.861
E34 [9], 111.1 nM | – | 1.04
E34 [9], 333.3 nM | – | 0.767
E34 [9], 1000 nM | – | 0.63
E34 [9], 3000 nM | – | 0.568
E57 [6], 4.1 nM | 0.552 | –
E57 [6], 12.3 nM | 1.14 | –
E57 [6], 37 nM | 0.391 | –
E57 [6], 111.1 nM | 0.908 | –
E57 [6], 333.3 nM | 3.27 | –
E57 [6], 1000 nM | 4.63 | –
E57 [6], 3000 nM | 6.24 | –
E57 [13], 4.1 nM | – | 0.942
E57 [13], 12.3 nM | – | 0.969
E57 [13], 37 nM | – | 1.05
E57 [13], 111.1 nM | – | 0.975
E57 [13], 333.3 nM | – | 0.663
E57 [13], 1000 nM | – | 0.346
E57 [13], 3000 nM | – | 0.238
FT3469 [1], 4.1 nM | 1 | –
FT3469 [1], 12.3 nM | 1.82 | –
FT3469 [1], 37 nM | 0.883 | –
FT3469 [1], 111.1 nM | 1.27 | –
FT3469 [1], 333.3 nM | 2.84 | –
FT3469 [1], 1000 nM | 4.38 | –
FT3469 [1], 3000 nM | 3.34 | –
FT3469 [8], 4.1 nM | – | 0.774
FT3469 [8], 12.3 nM | – | 0.984
FT3469 [8], 37 nM | – | 1.03
FT3469 [8], 111.1 nM | – | 0.968
FT3469 [8], 333.3 nM | – | 0.801
FT3469 [8], 1000 nM | – | 0.652
FT3469 [8], 3000 nM | – | 0.62
